# In patent publication US6465654B2, “Process for preparing 1-substituted, 2-substituted 1H-imidazo[4, 5-c]quinoline-4-amines” (3M Innovative Properties Company, priority 1991, dated 2002):
# Assays:
# interferon-α = experiment: Interferon-α induction in human cells, PBM; type: cell-based; details: 24 hours
# [1] = tested on: vesicular stomatitis virus (VSV); experiment: microbe, parasite or virus in culture; type: cell-based; details: for VSV Yield Inhibition: log10 (control VSV yield/experimental VSV yield)
# interferon = experiment: Interferon induction in mice; type: in vivo; details: mouse serum
# Experimental: One hour later blood samples are withdrawn from the first group. The samples are pooled then centrifuged. The serum is removed from the centrifuge tube, split into two portions, then placed in freezing vials and maintained at −70° C. until analysis. This procedure is repeated at 2 hours with the second group of mice and at 4 hours with the third group of mice. Samples are assayed as described above in connection with the analysis of interferon induction in human cells. The results are expressed in the table below as α/β reference units/mL based on the value obtained for a mouse MU-1-IF standard. Results are shown in the table below wherein results designated as “<” a certain number indicate that interferon was not detectable in amounts above the lower sensitivity level of the assay.
# [2] = Vesicular stomatitis virus, read-out: VSV Yield Inhibition
Molecule,Interferon-α induction (interferon-α; dose concentration 0.10 μg/mL),Interferon-α induction (interferon-α; dose concentration 0.50 μg/mL),Interferon-α induction (interferon-α; dose concentration 1.0 μg/mL),Interferon-α induction (interferon-α; dose concentration 5.0 μg/mL),"log reduction at 0.1 µg/mL [1, 2]","log reduction at 0.5 µg/mL [1, 2]","log reduction at 1 µg/mL [1, 2]","Interferon induction in mice (interferon; oral 0.3 mg/kg, 1 hr)","Interferon induction in mice (interferon; oral 0.3 mg/kg, 2 hr) [Reference Units/mL]","Interferon induction in mice (interferon; oral 0.3 mg/kg, 4 hr)","Interferon induction in mice (interferon; oral 1 mg/kg, 1 hr) [Reference Units/mL]","Interferon induction in mice (interferon; oral 1 mg/kg, 2 hr) [Reference Units/mL]","Interferon induction in mice (interferon; oral 1 mg/kg, 4 hr)","Interferon induction in mice (interferon; oral 3 mg/kg, 1 hr) [Reference Units/mL]","Interferon induction in mice (interferon; oral 3 mg/kg, 2 hr) [Reference Units/mL]","Interferon induction in mice (interferon; oral 3 mg/kg, 4 hr)","Interferon induction in mice (interferon; oral 10 mg/kg, 1 hr) [Reference Units/mL]","Interferon induction in mice (interferon; oral 10 mg/kg, 2 hr) [Reference Units/mL]","Interferon induction in mice (interferon; oral 10 mg/kg, 4 hr) [Reference Units/mL]",further results
"COC(c1ccccc1)c1nc2c(N)nc3ccccc3c2n1CC(C)C (stereo not drawn) [Example 51, 2-(α-Methoxybenzyl)-1-(2-methylpropyl)-1H-imidazo[4,5-c]quinolin-4-amine]",<5 α Reference Units/mL,<5 α Reference Units/mL,1000 α Reference Units/mL,330 α Reference Units/mL,0,1,5,,,,,,,,,,,,,
"CC(=O)NCc1nc2c(N)nc3ccccc3c2n1CC(C)C [Example 15, N-Acetyl-4-amino-1-(2-methylpropyl)-1H-imidazo-[4,5-c]quinoline-2-methanamine]",<1.8 α Reference Units/mL,250 α Reference Units/mL,430 α Reference Units/mL,750 α Reference Units/mL,,,6,<120 Reference Units/mL,<120,<120 Reference Units/mL,<120,<120,<120 Reference Units/mL,<120,270,<120 Reference Units/mL,270,3100,270,"log reduction at 5 µg/mL [1, 2]: 5; log reduction at 10 µg/mL [1, 2]: 5"
"COC(C)c1nc2c(N)nc3ccccc3c2n1CC(C)C (centres unmarked) [Example 66, 2-(1-Methoxyethyl)-1-(2-methylpropyl)-1H-imidazo[4,5-c]quinolin-4-amine]",<5 α Reference Units/mL,<5 α Reference Units/mL,1000 α Reference Units/mL,1000 α Reference Units/mL,2,2,3,<56 Reference Units/mL,<56,<56 Reference Units/mL,<56,<56,<56 Reference Units/mL,<74,<120,<56 Reference Units/mL,1100,2600,380,
"COCCc1nc2c(N)nc3ccccc3c2n1CC(C)C [Example 72, 2-(2-Methoxyethyl)-1-(2-methylpropyl)-1H-imidazo[4,5-c]quinolin-4-amine]",200 α Reference Units/mL,210 α Reference Units/mL,220 α Reference Units/mL,420 α Reference Units/mL,5,5,5,,,,,,,,,,,,,
"CCOCc1nc2c(N)nc3ccccc3c2n1Cc1ccccc1 [Example 93, 2-Ethoxymethyl-1-phenylmethyl-1H-imidazo[4,5-c]quinolin-4-amine]",850 α Reference Units/mL,280 α Reference Units/mL,300 α Reference Units/mL,300 α Reference Units/mL,0,5,5,400 Reference Units/mL,360,≦150 Reference Units/mL,660,1500,340 Reference Units/mL,1300,1300,˜260 Reference Units/mL,2100,2900,630,
"CC(C)Cn1c(CC(C)O)nc2c(N)nc3ccccc3c21 (stereo not drawn) [Example 81, 4-Amino-α-methyl-1-(2-methylpropyl)-1H-imidazo[4,5-c]quinoline-2-ethanol]",1100 α Reference Units/mL,2200 α Reference Units/mL,460 α Reference Units/mL,1100 α Reference Units/mL,5,4,5,,,,,,,,,,,,,
"CCOCc1nc2c(N)nc3ccccc3c2n1CCCOC [Example 44, 2-Ethoxymethyl-1-(3-methoxypropyl)-1H-imidazo[4,5-c]quinolin-4-amine]",3000 α Reference Units/mL,430 α Reference Units/mL,430 α Reference Units/mL,760 α Reference Units/mL,3,4,7,˜570 Reference Units/mL,510,<260 Reference Units/mL,990,<260,<260 Reference Units/mL,1000,1500,<260 Reference Units/mL,1800,1600,790,
"CCCCC(OC)c1nc2c(N)nc3ccccc3c2n1CC(C)C (centres unmarked) [Example 61, 2-(1-Methoxypentyl)-1-(2-methylproyl) -1H-imidazo[4,5-c]quinolin-4-amine]",64 α Reference Units/mL,1300 α Reference Units/mL,330 α Reference Units/mL,330 α Reference Units/mL,,,,<56 Reference Units/mL,<56,<56 Reference Units/mL,120,220,97 Reference Units/mL,290,500,120 Reference Units/mL,290,1100,160,VSV Yield Inhibition ([1]; dose concentration 0.1 μg/mL): 5 log10; VSV Yield Inhibition ([1]; dose concentration 0.5 μg/mL): 7 log10; VSV Yield Inhibition ([1]; dose concentration 1.0 μg/mL): 5 log10
"COC(C)Cc1nc2c(N)nc3ccccc3c2n1CC(C)C (centres unmarked) [Example 77, 2-(2-Methoxypropyl)-1-(2-methylpropyl)-1H-imidazo[4,5-c]quinolin-4-amine]",2600 α Reference Units/mL,390 α Reference Units/mL,250 α Reference Units/mL,280 α Reference Units/mL,3,5,5,,,,,,,,,,,,,Interferon-α induction (interferon-α; dose concentration 0.01 μg/mL): <6.3 α Reference Units/mL; Interferon-α induction (interferon-α; dose concentration 0.05 μg/mL): <6.3 α Reference Units/mL
"1-Butyl-2-methoxyethyl-1H-imidazo[4,5-c]quinolin-4-amine [Example 115]",120 α Reference Units/mL,190 α Reference Units/mL,190 α Reference Units/mL,240 α Reference Units/mL,,,,˜380 Reference Units/mL,2500,˜360 Reference Units/mL,1400,2900,˜310 Reference Units/mL,2200,5300,˜310 Reference Units/mL,5600,5300,870,Interferon-α induction (interferon-α; dose concentration 0.01 μg/mL): 91 α Reference Units/mL; Interferon-α induction (interferon-α; dose concentration 0.05 μg/mL): 96 α Reference Units/mL
